Measurements from patent US20250381307A1, “RETRO-AAV AND USE IN TREATING NEURODEGENERATIVE DISEASES” (priority 2023, published 2025).

Legend:
rM3Ds [1] = target: T1, rM3Ds (Rattus norvegicus, UniProt P08483, A177S/A238G/A489L/DEL261-437/DEL441-478/E258S/I253V/I483M/INS256[…]/K178L/K182A/K255R/K484R/K486H/L173F/L482A/M480V/R171S/R176Q/R179M/S481M/T174R/T181R/T257A/Y148C)
T1 sequence (P08483 with tags, fused parts or gaps Y148C/R171S/L173F/T174R/R176Q/A177S/K178L/R179M/T181R/K182A/A238G/I253V/K255R/INS256[…]/T257A/E258S/DEL261-437/DEL441-478/M480V/S481M/L482A/I483M/K484R/K486H/A489L): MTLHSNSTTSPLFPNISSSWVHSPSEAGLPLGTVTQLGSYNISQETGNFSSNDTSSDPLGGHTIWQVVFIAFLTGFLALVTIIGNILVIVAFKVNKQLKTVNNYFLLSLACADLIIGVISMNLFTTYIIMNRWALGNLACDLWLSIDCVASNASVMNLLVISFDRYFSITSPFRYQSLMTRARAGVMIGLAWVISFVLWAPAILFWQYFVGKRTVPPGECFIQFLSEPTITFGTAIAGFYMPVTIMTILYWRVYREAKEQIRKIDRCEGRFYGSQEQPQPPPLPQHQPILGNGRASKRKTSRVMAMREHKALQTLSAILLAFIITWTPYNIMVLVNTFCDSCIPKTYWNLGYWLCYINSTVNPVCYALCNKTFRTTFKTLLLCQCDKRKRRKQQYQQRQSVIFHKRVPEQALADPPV
Method: Monkeys were continuously monitored by veterinarians after lesion.
Dyskinesia score criteria were: 0: Absent. 1: Mild, fleeting, present <30% of the observation period.
Each block included ten continuous trials.
Customized surface EMG electrodes were used for EMG recordings. […] The recording procedure was conducted immediately after DCZ infusions.

[2] = Locomotion test in naive macaques without viral injection; assay type: in vivo; conditions: DCZ 0.3 mg/kg i.m., FIG. 35A-35G
[3] = Blood test of liver- and kidney-related factors during DCZ treatment; assay type: in vivo, macaques; conditions: FIG. 36B-36F
Text: FIG. 36A-36F depict effects of D1-MSN activation on dyskinesia-like behavior and health state-related blood factors in parkinsonian macaques. FIG. 36A illustrates quantitation of dyskinesia score at 2 months, 4 months, and 8 months after treatment with DCZ. n=3 monkeys per group.

rM3Ds [4] = target: T1, rM3Ds; test: In vivo electrophysiological recording in caudate/putamen of MPP+ lesioned macaques; set-up: rM3Ds; 2A-EYFP (C); host or cells: AAV8R12-transduced striatal D1-MSNs of mice and cynomolgus macaques (in vivo and acute slices)
Method: Electrophysiological recording was performed through a recording chamber while the monkey was anesthetized. Neural responses were recorded by a 16-channel linear probe (Plexon Inc, Uprobe) driven by a mechanical microdrive (Alpha Omega, FlexMT). Signals were passed through a head stage (Plexon Inc, HST/16V-G20 LN) and then split and filtered between 300 Hz and 5 kHz to identify spiking activity with an amplifier system (Plexon Inc, OmniPlex). Detected spikes were then sorted by commercially available software (Plexon Inc, Offline Sorter) for further analysis. To quantify the effect of CNO/DCZ injection, neural activity was recorded for 60 minutes following CNO/DCZ injection. The response time-course for each channel was obtained by counting the spikes within every 10-minute window and then normalizing to the maximal.
To determine the effect of CNO/DCZ injection on the direction of signal change, we performed Pearson correlation between neural responses and time using the ‘corr’ function in Matlab, which generates the correlation coefficient ‘r’ and significant level ‘p’. A neuron was considered to have “Increased” activity when r>0 and p<0.05; and considered to have “Decreased” activity when r<0 and p<0.05. Otherwise, neurons were considered to be “Unchanged” in their neural activities. The responses of all increased neurons were then averaged after being normalized by the maximal response (Crowe et al., 2014; Dai and Wang, 2018; Hirokawa et al., 2019) following CNO/DCZ injection, and then plotted as a function of time to generate the normalized population response.

[5] = CSF concentration of DCZ by LC-MS; assay type: in vivo, macaques; conditions: 24 hours after drug infusion, 0.3 mg/kg i.m., FIG. 24D
Text: One month of washout was allowed before administration of DCZ.

CN1CCN(C2=Nc3ccccc3Nc3ccccc32)CC1 [DCZ, deschloroclozapine]
efficacy after extended prior L-Dopa administration (rM3Ds [1]; 4 months prior L-Dopa, 1 month washout, FIG. 24F-24L): did not affect the efficacy of DCZ treatment or the absence of dyskinesia | alleviation of parkinsonian symptoms over long-term treatment (rM3Ds [1]; 8-month continuous treatment with DCZ): appeared to be consistent | motor skills (rM3Ds [1]; DCZ, hand to mouth movement): a significant recovery of motor skills | alleviation of symptoms after each dose at steady-state efficacy (rM3Ds [1]; FIG. 24C): at least 24 hours | parkinsonian symptoms (rM3Ds [1]; MPP+ macaques with AAV8R12-G88P7-rM3Ds-2A-EYFP, DCZ 0.3 mg/kg i.m., L-Dopa/benserazide 20/5 mg/kg/day oral): a reversal of canonical parkinsonian symptoms in all tested monkeys | tremor (rM3Ds [1]; after DCZ treatment, EMG): great reduced or even eliminated | speed of reversal of symptoms (rM3Ds [1]; initial phase of drug administration, FIG. 24B): faster reversal of symptoms than levodopa | dyskinesia (rM3Ds [1]; long-term treatment): dyskinesia-free | duration of effect (FIG. 18C) (rM3Ds [1]; n=3 monkeys): over 24 hr | spontaneous movement in an observation cage (rM3Ds [1]; systemic DCZ): an increase in spontaneous movement | motor-related behaviors in naïve monkeys [2]: did not alter motor-related behaviors | blood levels of common liver- and kidney-related factors (ALT, AST, GGT, CREA, BUN) [3]: remained stable | caudate/putamen cells activated (FIG. 15G) (rM3Ds [4]; CNO 36 cells, DCZ 31 cells, saline 17.9%): 41.9% | caudate/putamen cells inactivated (FIG. 15G) (rM3Ds [4]; saline 33.4%): 9.7% | caudate/putamen cells unchanged (FIG. 15G) (rM3Ds [4]; saline 48.7%): 48.4% | DCZ levels in cerebrospinal fluid [5]: no detectable levels
